Experimental data from ChEMBL document CHEMBL4385613, “Discovery of Conformational Control Inhibitors Switching off the Activated c-KIT and Targeting a Broad Range of Clinically Relevant c-KIT Mutants” (J Med Chem, 2019).
Activity calls are given as the source filed them. The rule behind the calls is not given here.

How the values were obtained:
[1] = test system: Mast/stem cell growth factor receptor Kit (Homo sapiens), P10721 [V559D,V654A]; assay: Inhibition of human c-KIT […] V559D/V654A double mutant at 10 nM using poly (Glu,Tyr) 4:1 as substrate in presence of 33P-gamma-ATP by hotspot kinase assay relative to control
GIST430 [2] = assay: Antiproliferative activity against human GIST430 cells harboring c-KIT exon 11 primary in-frame V560-L576 deletion mutant and exon 13 heterozygous secondary missense V654A mutant assessed as reduction in cell viability by MTS assay; type: functional
GISTT1 = assay: Antiproliferative activity against human GISTT1 cells harboring heterozygous V560-Y578 del mutation assessed as reduction in cell viability by methylene blue staining based assay; type: functional
[3] = test system: Mast/stem cell growth factor receptor Kit (Homo sapiens), P10721 [D816V]; details: at 10 nM
Description: Inhibition of human c-KIT A loop exon 17 D816V single mutant at 10 nM using poly (Glu,Tyr) 4:1 as substrate in presence of 33P-gamma-ATP by hotspot kinase assay relative to control

[4] = test system: Mast/stem cell growth factor receptor Kit (Homo sapiens), P10721 [D816V]; details: at 100 nM
Description: Inhibition of human c-KIT A loop exon 17 D816V single mutant at 100 nM using poly (Glu,Tyr) 4:1 as substrate in presence of 33P-gamma-ATP by hotspot kinase assay relative to control

GIST48 = assay: Antiproliferative activity against human GIST48 cells harboring c-KIT exon 11 homozygous primary missense V560D mutant and exon 17 heterozygous secondary D820A mutant assessed as reduction in cell viability by MTS assay; type: functional
[5] = test system: Mast/stem cell growth factor receptor Kit (Homo sapiens), P10721 [Y823D]; details: at 10 nM
Description: Inhibition of human c-KIT A loop exon 17 Y823D single mutant at 10 nM using poly (Glu,Tyr) 4:1 as substrate in presence of 33P-gamma-ATP by hotspot kinase assay relative to control

[6] = Half life in ICR mouse at 10 mg/kg, po administered as single dose measured up to 24 hrs by LC-MS/MS analysis; type: ADME, organism-based; details: in vivo
[7] = AUC in ICR mouse at 10 mg/kg, po administered as single dose measured up to 24 hrs by LC-MS/MS analysis; type: ADME, organism-based; set-up: dose 10 mg/kg, time < 24 hr, route oral; details: in vivo
[8] = molecular target: Mast/stem cell growth factor receptor Kit (Homo sapiens, UniProt P10721, A829P); assay: Inhibition of human c-KIT A loop exon 18 A829P single mutant using poly (Glu,Tyr) 4:1 as substrate in presence of 33P-gamma-ATP by hotspot kinase assay
[9] = test system: Mast/stem cell growth factor receptor Kit (Homo sapiens), P10721 [V560G]; assay: Inhibition of human c-KIT JM domain exon 11 V560G single mutant at 10 nM using poly (Glu,Tyr) 4:1 as substrate in presence of 33P-gamma-ATP by hotspot kinase assay relative to control
[10] = test system: Mast/stem cell growth factor receptor Kit (Homo sapiens), P10721 [UNDEFINED MUTATION]; assay: Inhibition of c-KIT V560-L576 deletion/V654A double mutant phosphorylation in human GIST430 cells assessed as decrease in phosphorylation of AKT at 10 to 100 nM measured after 24 to 72 hrs by Western blot analysis; type: cell-based
[11] = molecular target: Mast/stem cell growth factor receptor Kit (Homo sapiens, UniProt P10721, D820Y); assay: Inhibition of human c-KIT A loop exon 17 D820Y single mutant using poly (Glu,Tyr) 4:1 as substrate in presence of 33P-gamma-ATP by hotspot kinase assay
[12] = molecular target: Mast/stem cell growth factor receptor Kit (Homo sapiens, UniProt P10721, V559D/V654A); assay: Inhibition of human c-KIT […] V559D/V654A double mutant using poly (Glu,Tyr) 4:1 as substrate in presence of 33P-gamma-ATP by hotspot kinase assay
[13] = test system: Mast/stem cell growth factor receptor Kit (Homo sapiens), P10721 [V559D,V654A]; assay: Inhibition of human c-KIT […] V559D/V654A double mutant at 100 nM using poly (Glu,Tyr) 4:1 as substrate in presence of 33P-gamma-ATP by hotspot kinase assay relative to control
[14] = test system: Mast/stem cell growth factor receptor Kit (Homo sapiens), P10721 [Y823D]; details: at 100 nM
Description: Inhibition of human c-KIT A loop exon 17 Y823D single mutant at 100 nM using poly (Glu,Tyr) 4:1 as substrate in presence of 33P-gamma-ATP by hotspot kinase assay relative to control

GIST430 [15] = assay: Antitumor activity against human GIST430 cells harboring c-KIT exon 11 primary in-frame V560-L576 deletion mutant and exon 13 heterozygous secondary missense V654A mutant xenografted in NOD-SCID mouse assessed as tumor growth inhibition at 25 mg/kg, po administered for 2 weeks with 2 days rest after day 5 and measured thrice per week up to 21 days during compound dosing; type: functional, organism-based
[16] = test system: Mast/stem cell growth factor receptor Kit (Homo sapiens), P10721 [A829P]; assay: Inhibition of human c-KIT A loop exon 18 A829P single mutant at 10 nM using poly (Glu,Tyr) 4:1 as substrate in presence of 33P-gamma-ATP by hotspot kinase assay relative to control
[17] = test system: Mast/stem cell growth factor receptor Kit (Homo sapiens), P10721 [D820Y]; details: at 100 nM
Description: Inhibition of human c-KIT A loop exon 17 D820Y single mutant at 100 nM using poly (Glu,Tyr) 4:1 as substrate in presence of 33P-gamma-ATP by hotspot kinase assay relative to control

[18] = test system: Mast/stem cell growth factor receptor Kit (Homo sapiens), P10721 [A829P]; assay: Inhibition of human c-KIT A loop exon 18 A829P single mutant at 100 nM using poly (Glu,Tyr) 4:1 as substrate in presence of 33P-gamma-ATP by hotspot kinase assay relative to control
[19] = molecular target: Mast/stem cell growth factor receptor Kit (Homo sapiens, UniProt P10721, Y823D); assay: Inhibition of human c-KIT A loop exon 17 Y823D single mutant using poly (Glu,Tyr) 4:1 as substrate in presence of 33P-gamma-ATP by hotspot kinase assay
[20] = test system: Mast/stem cell growth factor receptor Kit (Homo sapiens), P10721 [D816H]; details: at 100 nM
Description: Inhibition of human c-KIT A loop exon 17 D816H single mutant at 100 nM using poly (Glu,Tyr) 4:1 as substrate in presence of 33P-gamma-ATP by hotspot kinase assay relative to control

[21] = test system: Mast/stem cell growth factor receptor Kit (Homo sapiens), P10721 [V560G,N822K]; assay: Inhibition of human c-KIT A loop exon 11/17 V560G/N822K double mutant at 100 nM using poly (Glu,Tyr) 4:1 as substrate in presence of 33P-gamma-ATP by hotspot kinase assay relative to control
[22] = molecular target: Mast/stem cell growth factor receptor Kit (Homo sapiens, UniProt P10721, K642E); assay: Inhibition of human c-KIT ATP binding domain exon 13 K642E single mutant using poly (Glu,Tyr) 4:1 as substrate in presence of 33P-gamma-ATP by hotspot kinase assay
[23] = test system: Mast/stem cell growth factor receptor Kit (Homo sapiens), P10721 [V560G]; assay: Inhibition of human c-KIT JM domain exon 11 V560G single mutant at 100 nM using poly (Glu,Tyr) 4:1 as substrate in presence of 33P-gamma-ATP by hotspot kinase assay relative to control
[24] = test system: Mast/stem cell growth factor receptor Kit (Homo sapiens), P10721 [UNDEFINED MUTATION]; assay: Inhibition of c-KIT V560-L576 deletion/V654A double mutant phosphorylation in human GIST430 cells at 10 to 100 nM measured after 24 to 72 hrs by Western blot analysis; type: cell-based
[25] = molecular target: Mast/stem cell growth factor receptor Kit (Homo sapiens, UniProt P10721, D816V); assay: Inhibition of human c-KIT A loop exon 17 D816V single mutant using poly (Glu,Tyr) 4:1 as substrate in presence of 33P-gamma-ATP by hotspot kinase assay
[26] = test system: Mast/stem cell growth factor receptor Kit (Homo sapiens), P10721 [D820E]; details: at 10 nM
Description: Inhibition of human c-KIT A loop exon 17 D820E single mutant at 10 nM using poly (Glu,Tyr) 4:1 as substrate in presence of 33P-gamma-ATP by hotspot kinase assay relative to control

[27] = test system: Mast/stem cell growth factor receptor Kit (Homo sapiens), P10721 [V560G,N822K]; assay: Inhibition of human c-KIT A loop exon 11/17 V560G/N822K double mutant at 10 nM using poly (Glu,Tyr) 4:1 as substrate in presence of 33P-gamma-ATP by hotspot kinase assay relative to control

Sequence of Mast/stem cell growth factor receptor Kit (Homo sapiens), P10721 [V560G] (P10721 whole entry V560G, the tested form may be a part): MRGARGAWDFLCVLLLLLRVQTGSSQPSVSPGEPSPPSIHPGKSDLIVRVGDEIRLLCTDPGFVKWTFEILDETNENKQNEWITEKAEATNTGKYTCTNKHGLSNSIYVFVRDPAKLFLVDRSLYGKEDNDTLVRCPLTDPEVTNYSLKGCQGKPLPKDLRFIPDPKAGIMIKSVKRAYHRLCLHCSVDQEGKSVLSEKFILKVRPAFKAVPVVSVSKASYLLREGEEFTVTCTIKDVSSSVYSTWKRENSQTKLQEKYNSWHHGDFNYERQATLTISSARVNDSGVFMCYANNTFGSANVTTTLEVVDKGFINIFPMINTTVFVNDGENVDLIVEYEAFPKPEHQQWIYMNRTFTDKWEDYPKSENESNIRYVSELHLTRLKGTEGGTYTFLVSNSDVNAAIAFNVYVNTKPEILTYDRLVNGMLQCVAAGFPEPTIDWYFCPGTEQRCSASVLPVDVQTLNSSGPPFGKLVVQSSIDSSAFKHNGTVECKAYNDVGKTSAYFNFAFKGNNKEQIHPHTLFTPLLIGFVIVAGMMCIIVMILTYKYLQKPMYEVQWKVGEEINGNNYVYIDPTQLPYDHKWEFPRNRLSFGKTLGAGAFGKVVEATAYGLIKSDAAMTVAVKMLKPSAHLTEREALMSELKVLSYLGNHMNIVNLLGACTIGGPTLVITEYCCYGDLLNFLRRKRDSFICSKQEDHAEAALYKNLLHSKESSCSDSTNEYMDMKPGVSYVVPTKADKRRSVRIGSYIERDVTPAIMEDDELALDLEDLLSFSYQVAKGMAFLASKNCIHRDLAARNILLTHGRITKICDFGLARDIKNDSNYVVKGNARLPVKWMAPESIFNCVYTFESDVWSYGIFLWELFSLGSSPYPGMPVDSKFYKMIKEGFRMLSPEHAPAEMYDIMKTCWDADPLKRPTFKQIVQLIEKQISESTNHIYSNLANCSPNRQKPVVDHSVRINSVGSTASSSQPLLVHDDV
Sequence of Mast/stem cell growth factor receptor Kit (Homo sapiens), P10721 [V560G,N822K] (P10721 whole entry V560G/N822K, the tested form may be a part): as the sequence (P10721 whole entry V560G, the tested form may be a part) above, with N822K counted along it
Sequence of Mast/stem cell growth factor receptor Kit (Homo sapiens), P10721 [Y823D] (P10721 whole entry Y823D): as the sequence (P10721 whole entry V560G, the tested form may be a part) above, with G560V, Y823D counted along it
Sequence of Mast/stem cell growth factor receptor Kit (Homo sapiens), P10721 [UNDEFINED MUTATION] (P10721 whole entry, looked up, stated change not applied): as the sequence (P10721 whole entry V560G, the tested form may be a part) above, with G560V counted along it
Sequence of Mast/stem cell growth factor receptor Kit (Homo sapiens), P10721 [V559D,V654A] (P10721 whole entry V559D/V654A): as the sequence (P10721 whole entry V560G, the tested form may be a part) above, with V559D, G560V, V654A counted along it
Sequence of Mast/stem cell growth factor receptor Kit (Homo sapiens), P10721 [D816V] (P10721 whole entry D816V): as the sequence (P10721 whole entry V560G, the tested form may be a part) above, with G560V, D816V counted along it
Sequence of Mast/stem cell growth factor receptor Kit (Homo sapiens), P10721 [A829P] (P10721 whole entry A829P): as the sequence (P10721 whole entry V560G, the tested form may be a part) above, with G560V, A829P counted along it
Sequence of Mast/stem cell growth factor receptor Kit (Homo sapiens, UniProt P10721, A829P) (P10721 26-976 A829P limits assumed): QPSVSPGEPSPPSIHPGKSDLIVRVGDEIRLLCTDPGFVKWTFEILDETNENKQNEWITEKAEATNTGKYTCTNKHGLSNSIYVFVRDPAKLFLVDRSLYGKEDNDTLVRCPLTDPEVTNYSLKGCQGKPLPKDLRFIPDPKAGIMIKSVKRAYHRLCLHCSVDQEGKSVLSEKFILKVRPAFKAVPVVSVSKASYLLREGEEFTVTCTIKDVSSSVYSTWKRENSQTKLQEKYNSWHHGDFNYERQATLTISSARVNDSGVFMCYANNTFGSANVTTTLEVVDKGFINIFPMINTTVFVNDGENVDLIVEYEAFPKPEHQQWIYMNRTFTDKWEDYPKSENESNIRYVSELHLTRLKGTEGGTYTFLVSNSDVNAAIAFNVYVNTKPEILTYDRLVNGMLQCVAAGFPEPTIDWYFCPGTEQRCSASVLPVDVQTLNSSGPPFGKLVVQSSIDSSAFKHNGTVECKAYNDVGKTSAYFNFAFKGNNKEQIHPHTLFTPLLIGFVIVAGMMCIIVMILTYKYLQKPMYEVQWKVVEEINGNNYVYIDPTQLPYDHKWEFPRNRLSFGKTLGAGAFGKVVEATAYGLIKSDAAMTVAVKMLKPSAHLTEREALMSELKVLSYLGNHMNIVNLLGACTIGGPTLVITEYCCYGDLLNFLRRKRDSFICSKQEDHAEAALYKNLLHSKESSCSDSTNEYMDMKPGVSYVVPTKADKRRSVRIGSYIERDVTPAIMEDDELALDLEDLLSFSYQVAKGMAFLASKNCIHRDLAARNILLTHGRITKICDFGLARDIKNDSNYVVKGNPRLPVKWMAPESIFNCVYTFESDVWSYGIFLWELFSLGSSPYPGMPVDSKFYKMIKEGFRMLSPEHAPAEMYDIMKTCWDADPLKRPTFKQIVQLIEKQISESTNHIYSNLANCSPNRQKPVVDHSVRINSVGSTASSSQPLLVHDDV
Sequence of Mast/stem cell growth factor receptor Kit (Homo sapiens), P10721 [D820Y] (P10721 whole entry D820Y): as the sequence (P10721 whole entry V560G, the tested form may be a part) above, with G560V, D820Y counted along it
Sequence of Mast/stem cell growth factor receptor Kit (Homo sapiens), P10721 [D820E] (P10721 whole entry D820E): as the sequence (P10721 whole entry V560G, the tested form may be a part) above, with G560V, D820E counted along it
Sequence of Mast/stem cell growth factor receptor Kit (Homo sapiens, UniProt P10721, D820Y) (P10721 26-976 D820Y limits assumed): as the sequence (P10721 26-976 A829P limits assumed) above, with D795Y, P804A counted along it
Sequence of Mast/stem cell growth factor receptor Kit (Homo sapiens, UniProt P10721, V559D/V654A) (P10721 26-976 V559D/V654A limits assumed): as the sequence (P10721 26-976 A829P limits assumed) above, with V534D, V629A, P804A counted along it
Sequence of Mast/stem cell growth factor receptor Kit (Homo sapiens, UniProt P10721, K642E) (P10721 26-976 K642E limits assumed): as the sequence (P10721 26-976 A829P limits assumed) above, with K617E, P804A counted along it
Sequence of Mast/stem cell growth factor receptor Kit (Homo sapiens, UniProt P10721, Y823D) (P10721 26-976 Y823D limits assumed): as the sequence (P10721 26-976 A829P limits assumed) above, with Y798D, P804A counted along it
Sequence of Mast/stem cell growth factor receptor Kit (Homo sapiens), P10721 [D816H] (P10721 whole entry D816H): as the sequence (P10721 whole entry V560G, the tested form may be a part) above, with G560V, D816H counted along it
Sequence of Mast/stem cell growth factor receptor Kit (Homo sapiens, UniProt P10721, D816V) (P10721 26-976 D816V limits assumed): as the sequence (P10721 26-976 A829P limits assumed) above, with D791V, P804A counted along it

CCc1cc(NC(=O)Nc2ccc(-c3cnc(Nc4cc(N5CCN(CC)CC5)ncn4)s3)cc2)no1
inhibition [1]: 10% | GI50 (GIST430 [2]): 1 nM | GI50 (GISTT1): 2.2 nM | inhibition [3]: 37% | inhibition [4]: 73% | GI50 (GIST48): 2 nM | inhibition [5]: 97% | half-life [6]: 2.8 h | AUC at 24 h [7]: 2800 ng·h/mL | IC50 [8]: 0.89 nM | inhibition [9]: 95% | inhibition [10]: Active | IC50 [11]: 0.02 nM | IC50 [12]: 102 nM | inhibition [13]: 43% | inhibition [14]: 100% | TGI (GIST430 [15]): Active | inhibition [16]: 90% | inhibition [17]: 100% | inhibition [18]: 99% | IC50 [19]: 0.12 nM | inhibition [20]: 96% | inhibition [21]: 99% | IC50 [22]: 1.37 nM | inhibition [23]: 99% | inhibition [24]: Active | IC50 [25]: 8.56 nM | inhibition [26]: 83% | inhibition [27]: 94%
